This test concerns the target BTK (Homo sapiens, UniProt Q06187). Description: biochemical.
[1] abbreviates: read-out: BTK inhibition (%), 0.75 uM BTK, […] probe 3l, 15 min preincubation.

Where two headings read alike, the source gives them in different places.

Sequence of BTK (Q06187 402-655 limits assumed): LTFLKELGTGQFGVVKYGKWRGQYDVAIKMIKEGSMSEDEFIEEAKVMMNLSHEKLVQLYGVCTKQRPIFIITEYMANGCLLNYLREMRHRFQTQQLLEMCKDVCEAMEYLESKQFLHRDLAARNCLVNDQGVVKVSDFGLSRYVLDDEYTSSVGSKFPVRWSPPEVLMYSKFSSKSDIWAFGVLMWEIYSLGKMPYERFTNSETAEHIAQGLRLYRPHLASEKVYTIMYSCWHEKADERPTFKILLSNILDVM

One may read the inhibition as the change of the read-out against control, counted positive when it falls. On to `CO[C@H]1C(=O)[C@]2(C)[C@@H](OC)C[C@H]3OC[C@@]3(OC(C)=O)[C@H]2[C@H](OC(=O)c2ccccc2)[C@]2(O)C[C@H](OC(=O)[C@H](O)[C@@H](NC(=O)OC(C)(C)C)c3ccccc3)C(C)=C1C2(C)C` [PCM-0214715], for which the inhibition at 10 µM under setting [1] is -14.8%.

Consider `CC[C@H](C)C(=O)O[C@H]1C[C@H](O)C=C2C=C[C@H](C)[C@H](CC[C@@H](O)C[C@@H](O)CC(=O)O)[C@H]21` [PCM-0214717], for which the inhibition at 10 µM under setting [1] is -3.1%.

`CC(C)(C)NC(=O)[C@H]1CC[C@H]2[C@@H]3CC[C@H]4NC(=O)C=C[C@]4(C)[C@H]3CC[C@]12C` [PCM-0214718]: under setting [1], the inhibition at 10 µM was found to be 13.2%.

Regarding `C[C@H]1O[C@H](O[C@H]2[C@H](O)[C@@H](O)[C@@H](O[C@@H]([C@H](O)[C@@H](O)C=O)[C@H](O)CO)O[C@@H]2CO)[C@H](O)[C@@H](O)[C@@H]1N[C@H]1C=C(CO)[C@@H](O)[C@H](O)[C@H]1O` [PCM-0214720], the inhibition at 10 µM under setting [1] is -7%.

Take `CCCCC(=O)O[C@H]1CC[C@H]2[C@@H]3CCc4cc(O)ccc4[C@H]3CC[C@]12C` [PCM-0214721]: the inhibition at 10 µM under setting [1] was 17.9%.

For `CC1(C)S[C@@H]2[C@H](NC(=O)C(C(=O)O)c3ccccc3)C(=O)N2[C@H]1C(=O)O` (some centres unmarked) [PCM-0214723], the inhibition at 10 µM under setting [1] stood at 10.1%.

For the compound `CC1(C)S[C@@H]2[C@H](NC(=O)[C@H](C(=O)O)c3ccsc3)C(=O)N2[C@H]1C(=O)O` [PCM-0214724], under setting [1], the inhibition at 10 µM is -1.6%.

Turning to `Cc1cc([C@@H](C)Nc2ccccc2C(=O)O)c2nc(N3CCOCC3)cc(=O)n2c1` [PCM-0214725], the inhibition at 10 µM under setting [1] was -6.9%.

On to `COc1cc2c(c(OC)c1OC)-c1c(cc3c(c1OC)OCO3)CC(C)C(C)C2` (centres unmarked) [PCM-0214727], for which the inhibition at 10 µM under setting [1] is 11.7%.

For `O=C1C(=O)c2ccccc2C(O)=C1C1CCC(c2ccc(Cl)cc2)CC1` (centres unmarked) [PCM-0214729], the inhibition at 10 µM under setting [1] stood at 16.3%.

Regarding `C=C(C)[C@@H]1CC[C@]2(C(=O)O)CC[C@]3(C)[C@H](CC[C@@H]4[C@@]5(C)CC[C@H](O)C(C)(C)[C@@H]5CC[C@]43C)[C@@H]12` [PCM-0214730], the inhibition at 10 µM under setting [1] worked out at 3.9%.

`Cc1ncc(CCCN(C)C)cc1Nc1ncc2c(n1)-c1ccc(C(F)(F)F)cc1NC(=S)C2` [PCM-0214732]: the inhibition at 10 µM under setting [1] amounted to 24.1%.

On to `CCOC(=O)CCC(=O)O[C@H]1[C@H](O[C@@H]2[C@@H](C)[C@H](O[C@H]3C[C@@](C)(OC)[C@@H](O)[C@H](C)O3)[C@@H](C)C(=O)O[C@H](CC)[C@@](C)(O)[C@H](O)[C@@H](C)C(=O)[C@H](C)C[C@@]2(C)O)O[C@H](C)C[C@@H]1N(C)C` [PCM-0214733], for which, under setting [1], the inhibition at 10 µM is -14.8%.

As for `NC(N)=Nc1nc(CSCC/C(N)=N/S(N)(=O)=O)cs1` [PCM-0214735], the inhibition at 10 µM under setting [1] was -26.2%.

As for `CC[C@H]1OC(=O)[C@H](C)[C@@H](O[C@H]2C[C@@](C)(OC)[C@@H](O)[C@H](C)O2)[C@H](C)[C@@H](O[C@@H]2O[C@H](C)C[C@H](N(C)C)[C@H]2O)[C@](C)(O)C[C@@H](C)/C(=N\OCOCCOC)[C@H](C)[C@@H](O)[C@]1(C)O` [PCM-0214736], the inhibition at 10 µM under setting [1] is 3.9%.

Turning to `Cc1cn([C@H]2O[C@@H](CO)[C@H](O)[C@H]2F)c(=O)[nH]c1=O` [PCM-0214737], the inhibition at 10 µM under setting [1] came to 23.3%.

Turning to `CC(C)CN(C[C@@H](O)[C@H](Cc1ccccc1)NC(=O)O[C@H]1CCOC1)S(=O)(=O)c1ccc(N)cc1` [PCM-0214738], under setting [1], the inhibition at 10 µM was -41.2%.

Take `O=C(O)c1cc(N=Nc2ccc(S(=O)(=O)Nc3ccccn3)cc2)ccc1O` [PCM-0214740]: the inhibition at 10 µM under setting [1] was 48.3%.

Turning to `C[C@]12CC[C@H](O)C[C@@H]1CC[C@@H]1[C@@H]2CC[C@]2(C)C(=O)CC[C@@H]12` [PCM-0214741], the inhibition at 10 µM (read-out: BTK inhibition (%)) was -21.8%.

`C[C@H](CCC(=O)O)[C@H]1CC[C@H]2[C@@H]3CC[C@@H]4C[C@H](O)CC[C@]4(C)[C@H]3CC[C@]12C` [PCM-0214742]: under setting [1], the inhibition at 10 µM is -8.6%.

In the case of `CCOc1ccc2ccccc2c1C(=O)N[C@@H]1C(=O)N2[C@@H]1SC(C)(C)[C@@H]2C(=O)O` [PCM-0214744], under setting [1], the inhibition at 10 µM was -11.7%.

As for `O=C(O)c1cc(N=Nc2ccc(O)c(C(=O)O)c2)ccc1O` [PCM-0214745], the inhibition at 10 µM under setting [1] worked out at 17.2%.

For `C=C1CC[C@H](O)C/C1=C/C=C1\CCC[C@]2(C)[C@@H]([C@H](C)/C=C/[C@H](C)C(C)C)CC[C@@H]12` [PCM-0214746], under setting [1], the inhibition at 10 µM was -23.3%.

Consider `Cc1onc(-c2c(Cl)cccc2Cl)c1C(=O)N[C@@H]1C(=O)N2[C@@H]1SC(C)(C)[C@@H]2C(=O)O` [PCM-0214747], for which the inhibition at 10 µM under setting [1] is 9.3%.

On to `C[C@]12CC[C@@H]3c4ccc(O)cc4CC[C@H]3[C@@H]1CC[C@@H]2OC(=O)CCC1CCCC1` [PCM-0214748], for which the inhibition at 10 µM under setting [1] came to 0.8%.

Consider `COc1cccc2c1C(=O)c1c(O)c3c(c(O)c1C2=O)C[C@@](O)(C(=O)CO)C[C@@H]3O[C@H]1C[C@H](N)[C@H](O[C@@H]2CCCCO2)[C@H](C)O1` [PCM-0214749], for which the inhibition at 10 µM under setting [1] stood at 53.7%.

On to `CC(C)[C@H](N)C(=O)OCC(CO)OCn1cnc2c(=O)[nH]c(N)nc21` (some centres unmarked) [PCM-0214750], for which, under setting [1], the inhibition at 10 µM was -2.3%.

As for `OC[C@@H](O)CN1CCN(c2ccccc2)CC1` [PCM-0214752], the inhibition at 10 µM under setting [1] was -22.8%.

On to `COc1cc(C(=O)NC2CCCNC2)cc(OC)c1OC` (centres unmarked) [PCM-0214753], for which the inhibition at 10 µM under setting [1] was -3.1%.

As to `CCCCCCCCCCCCCCCCO` [PCM-0214755], the inhibition at 10 µM under setting [1] is -3.9%.

With `Nc1c(CC(=O)O)cccc1C(=O)c1ccccc1` [PCM-0214756], under setting [1], the inhibition at 10 µM was -17.2%.

As for `CC(C)NCC(O)c1ccccc1Cl` (centres unmarked) [PCM-0214757], the inhibition at 10 µM under setting [1] came to 10.9%.

With `CC1(C)S[C@@H]2[C@H](NC(=O)[C@H](NC(=O)N3CCN(S(C)(=O)=O)C3=O)c3ccccc3)C(=O)N2[C@H]1C(=O)O` [PCM-0214758], under setting [1], the inhibition at 10 µM is -19.5%.

Take `CN(C)Cc1ccc(S(=O)(=O)n2ccc(/C=C/C(=O)NO)c2)cc1` [PCM-0214759]: the inhibition at 10 µM under setting [1] stood at 9.3%.

With `COc1ccc2cc1Oc1ccc(cc1)C[C@H]1c3c(cc4c(c3Oc3cc5c(cc3OC)CCN(C)[C@@H]5C2)OCO4)CCN1C` [PCM-0214760], the inhibition at 10 µM under setting [1] was 30.4%.

Turning to `CC(=O)OCC(=O)[C@H]1CC[C@H]2[C@@H]3CCC4=CC(=O)CC[C@]4(C)[C@H]3CC[C@]12C` [PCM-0214761], the inhibition at 10 µM under setting [1] was -11.7%.

As to `CC[C@H]1OC(=O)[C@H](C)[C@@H](O[C@H]2C[C@@](C)(OC)[C@@H](O)[C@H](C)O2)[C@H](C)[C@@H](O[C@@H]2O[C@H](C)C[C@H](N(C)C)[C@H]2O)[C@](C)(O)C[C@@H](C)[C@@H]2N[C@@H](COCCOC)O[C@H]([C@H]2C)[C@]1(C)O` [PCM-0214762], the inhibition at 10 µM under setting [1] was -10.9%.

Consider `CCCCCCCCCCCC[N+](C)(C)CCOc1ccccc1` [PCM-0214763], for which, under setting [1], the inhibition at 10 µM was -14.8%.

Consider `CC(O)=C(C#N)C(=O)Nc1ccc(C(F)(F)F)cc1` [PCM-0214764], for which the inhibition at 10 µM under setting [1] was 0%.

`C=C[C@]1(C)C[C@@H](OC(=O)CSC(C)(C)CNC(=O)[C@H](N)C(C)C)[C@]2(C)[C@H](C)CC[C@]3(CCC(=O)[C@H]32)[C@@H](C)[C@@H]1O` [PCM-0214765]: under setting [1], the inhibition at 10 µM was found to be 20.2%.

On to `C=CC(=O)N1C/C(=C\c2ccc([N+](=O)[O-])cc2)C(=O)/C(=C/c2ccc([N+](=O)[O-])cc2)C1` [PCM-0214766], for which the inhibition at 10 µM under setting [1] is -15.6%.

With `CCCC(=O)O[C@]1(C(=O)COC(C)=O)CC[C@H]2[C@@H]3C[C@H](F)C4=CC(=O)C=C[C@]4(C)[C@@]3(F)[C@@H](O)C[C@@]21C` [PCM-0214767], the inhibition at 10 µM under setting [1] is -3.4%.

With `CCC(=O)O[C@]1(C(=O)CCl)[C@@H](C)C[C@H]2[C@@H]3C[C@H](F)C4=CC(=O)C=C[C@]4(C)[C@@]3(F)[C@@H](O)C[C@@]21C` [PCM-0214768], the inhibition at 10 µM under setting [1] was determined as 22.8%.

As to `CC(C)NC[C@H](O)COc1ccc(CCOCC2CC2)cc1` [PCM-0214769], the inhibition at 10 µM under setting [1] amounted to 0.8%.

Take `OCC(CO)N[C@H]1C[C@](O)(CO)[C@@H](O)[C@H](O)[C@H]1O` [PCM-0214770]: the inhibition at 10 µM under setting [1] was -8.6%.

On to `CC1(C)S[C@@H]2[C@H](NC(=O)Cc3ccccc3)C(=O)N2[C@H]1C(=O)O` [PCM-0214771], for which, under setting [1], the inhibition at 10 µM is -10.1%.

Turning to `CC(C)(C)C1CCC(CC2=C(O)c3ccccc3C(=O)C2=O)CC1` (centres unmarked) [PCM-0214772], the inhibition at 10 µM under setting [1] was determined as 3.1%.

For the compound `OC[C@@H](O)[C@@H](O)CO` [PCM-0214773], the inhibition at 10 µM under setting [1] amounted to 7.8%.

As for `CCc1c(Cl)c(O)c(Cl)c(O)c1C(=O)O[C@H]1[C@H](O)[C@H](OC)[C@H](OC/C2=C\C=C\C[C@H](O)/C(C)=C/[C@H](CC)[C@@H](O[C@@H]3OC(C)(C)[C@@H](OC(=O)C(C)C)[C@H](O)[C@@H]3O)/C(C)=C/C(C)=C/C[C@@H]([C@@H](C)O)OC2=O)O[C@@H]1C` [PCM-0214774], the inhibition at 10 µM under setting [1] amounted to 45.9%.

Take `O[C@@H]1CO[C@H]2[C@@H]1OC[C@@H]2O` [PCM-0214776]: under setting [1], the inhibition at 10 µM was -3.9%.

`Nc1c(CC(=O)O)cccc1C(=O)c1ccc(Br)cc1` [PCM-0214777]: the inhibition at 10 µM under setting [1] is -47.6%.

As for `CCOC(=O)C1=C(N)Oc2ccc(Br)cc2C1C(C#N)C(=O)OCC` (centres unmarked) [PCM-0214778], the inhibition at 10 µM under setting [1] stood at 15.6%.

Take `O=c1c(-c2ccc(O)cc2)coc2cc(O[C@@H]3O[C@H](CO)[C@@H](O)[C@H](O)[C@H]3O)ccc12` [PCM-0214779]: the inhibition at 10 µM under setting [1] turned out to be 10.9%.

`Cc1c(Cc2ccc3ccccc3n2)c2cc(F)ccc2n1CC(=O)O` [PCM-0214780]: under setting [1], the inhibition at 10 µM is 8.6%.

For `O=c1ncn2nc(Sc3ccc(F)cc3F)ccc2c1-c1c(Cl)cccc1Cl` [PCM-0214781], the inhibition at 10 µM under setting [1] was 40%.

As to `C[C@H](Cc1cc2c(c(C(N)=O)c1)N(CCCO)CC2)NCCOc1ccccc1OCC(F)(F)F` [PCM-0214784], the inhibition at 10 µM under setting [1] was -12.5%.

For `CC(C)OC(=O)[C@H](C)N[P@](=O)(OC[C@H]1O[C@@H](n2ccc(=O)[nH]c2=O)[C@](C)(F)[C@@H]1O)Oc1ccccc1` [PCM-0214785], the inhibition at 10 µM under setting [1] came out at 13.2%.

In the case of `Cc1cc(C)cc(NC(=O)Cc2ccc(OC(C)(C)C(=O)O)cc2)c1` [PCM-0214786], under setting [1], the inhibition at 10 µM was -2.3%.

Consider `CC(C)(Oc1ccc(Cl)cc1)C(=O)OCCOC(=O)c1cccnc1` [PCM-0214787], for which the inhibition at 10 µM under setting [1] was -6.2%.
